“Also recorded” adds a separate entry of the source. Read-outs that look alike come from different tables or passages of the source.
Experiments:
[1] = target: human AURORA B1–344–INCENP835–903 complex (Homo sapiens, UniProt Q96GD4); experiment: In vitro kinase assay on AURORA B–INCENP complex, substrate histone H3; type: biochemical
[2] = target: T1, MPS1 (Homo sapiens, UniProt P33981); experiment: In vitro kinase assay on MPS1; type: biochemical; conditions: for MPS1 inhibition in vitro: 1 µM
T1 sequence (P33981 1-857): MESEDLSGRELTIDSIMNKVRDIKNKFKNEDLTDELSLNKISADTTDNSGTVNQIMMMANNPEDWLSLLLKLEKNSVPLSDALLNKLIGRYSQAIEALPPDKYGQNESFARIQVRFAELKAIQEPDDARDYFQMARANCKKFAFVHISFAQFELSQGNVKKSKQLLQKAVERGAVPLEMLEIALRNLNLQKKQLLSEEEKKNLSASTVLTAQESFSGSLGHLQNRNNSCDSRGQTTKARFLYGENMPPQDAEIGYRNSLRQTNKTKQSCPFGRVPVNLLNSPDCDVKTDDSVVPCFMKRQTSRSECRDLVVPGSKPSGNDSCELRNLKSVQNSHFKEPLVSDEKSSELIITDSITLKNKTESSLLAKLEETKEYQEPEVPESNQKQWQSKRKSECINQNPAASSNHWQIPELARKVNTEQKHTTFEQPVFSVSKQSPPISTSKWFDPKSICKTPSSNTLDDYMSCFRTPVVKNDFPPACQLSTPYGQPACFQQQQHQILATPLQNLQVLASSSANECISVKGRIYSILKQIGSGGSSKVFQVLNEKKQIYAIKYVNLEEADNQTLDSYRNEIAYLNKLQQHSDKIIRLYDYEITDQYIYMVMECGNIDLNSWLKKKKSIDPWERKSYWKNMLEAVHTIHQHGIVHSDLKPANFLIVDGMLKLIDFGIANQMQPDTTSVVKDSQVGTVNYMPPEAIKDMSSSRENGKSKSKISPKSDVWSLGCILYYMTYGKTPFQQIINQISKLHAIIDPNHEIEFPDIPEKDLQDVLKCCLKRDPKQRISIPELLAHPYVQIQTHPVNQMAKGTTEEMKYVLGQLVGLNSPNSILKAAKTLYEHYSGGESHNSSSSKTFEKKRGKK

[3] = system: HeLa cells; experiment: Spindle checkpoint: duration of mitotic arrest, time-lapse video microscopy; type: cell-based, human
[4] = system: P-S10-H3 (AURORA B substrate); experiment: P-S10-H3 levels by Western blotting in mitotic HeLa cell lysates; type: cell-based, human
[5] = system: HeLa cells; experiment: Cytokinesis, time-lapse experiment; type: cell-based, human
[6] = system: HeLa cells; experiment: Chromosome congression / alignment, immunofluorescence; type: cell-based, human; conditions: 100 µM
[7] = system: BUB1; experiment: In vitro kinase assay on BUB1; type: biochemical, human
[8] = system: MAD2; conditions: 100 nM hesperadin, ref Yang et al., 2009, cited from earlier work
[9] = system: P-S7–CENP-A (AURORA B substrate); experiment: Kinetochore P-S7–CENP-A levels, immunofluorescence; type: cell-based, human
[10] = target: T1, MPS1; experiment: Kinetochore localization of MPS1, immunofluorescence; type: cell-based; conditions: 0.5 µM; nocodazole
[11] = system: ROD, ZWILCH, ZW10, SPINDLY, MAD1; experiment: Kinetochore localization of RZZ, SPINDLY and MAD1, immunofluorescence; type: cell-based, human
[12] = system: HeLa cells; conditions: concentrations up to 10 µM; MG132
[13] = system: AURORA B; conditions: HeLa cells
[14] = system: PLK1; conditions: 1 µM
[15] = system: NEK2A; conditions: 1 µM
[16] = system: HeLa cells
[17] = system: MAPKs; conditions: 1 µM; ref D’Alise et al., 2008; cited from earlier work
[18] = system: PRP4; conditions: 1 µM
[19] = system: TAO1; conditions: 1 µM
[20] = system: HeLa cells; conditions: cold treatment
[21] = system: CDK1–CYCLIN B; conditions: 1 µM
[22] = system: HASPIN; conditions: 1 µM

Chain of human AURORA B1–344–INCENP835–903 complex (Q96GD4 whole entry): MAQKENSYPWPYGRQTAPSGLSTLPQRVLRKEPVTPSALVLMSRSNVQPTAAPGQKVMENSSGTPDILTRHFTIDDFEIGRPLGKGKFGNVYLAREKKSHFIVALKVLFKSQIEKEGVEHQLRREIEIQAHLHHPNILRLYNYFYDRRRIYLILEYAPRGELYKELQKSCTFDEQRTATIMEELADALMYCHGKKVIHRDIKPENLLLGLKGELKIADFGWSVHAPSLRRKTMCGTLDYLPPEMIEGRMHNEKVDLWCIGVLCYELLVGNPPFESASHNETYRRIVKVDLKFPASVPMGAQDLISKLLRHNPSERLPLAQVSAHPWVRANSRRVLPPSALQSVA
Chain of human AURORA B1–344–INCENP835–903 complex (Q9NQS7 835-903 partner limits assumed): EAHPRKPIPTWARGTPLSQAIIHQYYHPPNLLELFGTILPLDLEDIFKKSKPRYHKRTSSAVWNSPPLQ

Oc1c2ccccc2c2c3c(cccc13)N=N2 [SP600125]
IC50 for AURORA B compared with IC50 for MPS1 [1]: significantly lower
IC50 [2]: ~2500 nM

N#CC(=C(/N)Sc1ccccc1N)/C(C#N)=C(/N)Sc1ccccc1N [U0126]
effect on duration of the spindle checkpoint ([3]; 10 µM): does not affect the duration of the spindle checkpoint

COc1cc2c(Nc3ccc(NC(=O)c4ccccc4)cc3)ncnc2cc1OCCCN1CCOCC1 [ZM447439]
concentration inhibiting P-S10-H3 ([4]; Western blotting): ≤ 500 nM
concentration range in which cytokinesis is impaired ([5]; time-lapse): 0.1 to 0.5 µM
MPS1 inhibition in vitro [2]: did not inhibit

Cc1ccc2c(c1)C(=O)C1(O)CCN(c3ccccc3)C1=N2 (stereo not drawn) [blebbistatin]
effect on chromosome alignment [6]: did not cause any evident effects; also recorded: does not cause evident perturbations
ability of mitotic HeLa cells to maintain a nocodazole-mediated arrest ([3]; unpublished data): did not significantly affect

CCS(=O)(=O)Nc1ccc2c(c1)/C(=C(/Nc1ccc(CN3CCCCC3)cc1)c1ccccc1)C(=O)N2 [hesperadin]
BUB1 inhibition in vitro ([7]; 1 µM hesperadin): failed to observe significant MPS1 (and BUB1) inhibition
MAD2 at kinetochores ([8]; high nocodazole (3.2 µM)): retained on kinetochores
MAD2 at kinetochores ([8]; low nocodazole concentrations): absent from kinetochores
cells with impaired cytokinesis ([5]; 5–10 nM range): 100%
P-S7–CENP-A antigen ([9]; 100 nM): invisible
MPS1 inhibition in vitro [2]: failed to observe significant MPS1 (and BUB1) inhibition
MPS1 kinetochore staining [10]: prevented kinetochore localization
MAD1 and RZZ complex at kinetochores ([11]; 0.5–1.0 µM, high concentrations of nocodazole, unpublished data): lost from kinetochores

c1nc2nc(Nc3ccc(N4CCOCC4)cc3)nc(NC3CCCCC3)c2[nH]1 [reversine]
inhibition of spindle bipolarization [12]: did not inhibit
kinetochore localization of AURORA B [13]: unaffected
effect on BUB1 kinase activity ([7]; 1 µM): failed to alter the activity
spindle checkpoint in the presence of Taxol, STLC or BI2536 ([3]; 500 nM Taxol, 10 µM STLC or BI2536): caused an override of the checkpoint
effect on PLK1 kinase activity [14]: failed to alter the activity
effect on NEK2A kinase activity [15]: failed to alter the activity
effect on centrosome duplication [16]: failed to see an effect
effect on P-S10-H3 ([4]; 0.5 µM): no effects
inhibition of MAPKs [17]: not significantly inhibited
effect on cytokinesis ([5]; 0.5 µM): does not significantly inhibit
effect on cytokinesis ([5]; 1 µM): unaffected
effect on PRP4 kinase activity [18]: failed to alter the activity
kinetochore levels of P–CENP-A ([9]; up to 5 µM, nocodazole): not influenced; also recorded: unaltered
effect on TAO1 kinase activity [19]: failed to alter the activity
inhibition of kinetochore fiber formation [20]: did not inhibit
kinetochore localization of ROD, ZWILCH, ZW10, SPINDLY and MAD1 ([11]; 0.5 µM reversine, 330 nM nocodazole, MG132): largely evicted from kinetochores
MAD1 localization to kinetochores ([11]; nocodazole 0.33 or 3.3 µM): failed to localize to kinetochores
effect on CDK1–CYCLIN B kinase activity [21]: failed to alter the activity
effect on HASPIN kinase activity [22]: failed to alter the activity

COC[C@H]1OC(=O)c2coc3c2[C@@]1(C)C1=C(C3=O)[C@@H]2CCC(=O)[C@@]2(C)C[C@H]1OC(C)=O [wortmannin]
effect on duration of the spindle checkpoint ([3]; 100 nM): does not affect the duration of the spindle checkpoint
